One test concerns MDA-MB-453 cells. As to the kind of experiment: CellQuanti-Blue cell viability assay, MDA-MB-453. In kind it is cell-based. As to the method:
Cell viability was then assessed using the CellQuanti assay. Relative cell viability was determined using DMSO only and blank controls.
Cells were plated at 2000 cells/well into 96-well plates in media containing 10% FBS. […] CellQuanti-Blue cell viability reagent was added to each well and the plates were subsequently incubated at 37° C. for 3 hours. Viability was determined fluorometrically using an Enspire plate reader […] excitation: 530 nm, emission: 590 nm. Viability was normalized to DMSO controls and blank wells with media.

In test [1] the test system is TM00098 patient-derived xenografts (TNBC). Nature of the test: TM00098 patient derived TNBC xenografts in humanized Hu-CD34-NSG mice, tumor growth. In kind it is in vivo. An excerpt: FIG. 11: Primary tumor growth of TM00098 patient derived triple-negative breast cancer xenografts in humanized immunocompetent NSG mice (Hu-CD34-NSG) treated with OT-1096 or vehicle control. A) Humanized NSG mice (Hu-CD34-NSG) engrafted with CD34+ cells from donor 5243 and subsequently implanted with TNBC PDX TM00098. B) Humanized NSG mice (Hu-CD34-NSG) engrafted with CD34+ cells from donor 5252 and subsequently implanted with TNBC PDX TM00098. Female NSG mice were implanted with human CD34+ hematopoietic stem cells from multiple donors and the level of human CD45+ cells were measured in the peripheral blood 12 weeks post engraftment. Mice with >25% human CD45+ cells in the peripheral blood were determined to have a humanized immune system (Hu-CD34-NSG™) mice and were enrolled into the study. […] Tumor volume was measured using a digital caliper two times a week for the duration of the study. […] Statistical significance (p<0.05) was determined using a Two-way repeated measures ANOVA with Sidak's multiple comparison test.
Athymic nude mice were inoculated orthotopically with 5×10^6 MDA-MB-231 breast cancer cells into the mammary fat pad, and randomized for treatment when tumors reached an average volume of 80-120 mm^3 (N=12 in each group). […] Xenograft tumor volume was assessed using caliper measurements for 25 days. […] Xenograft tumor volume was assessed using caliper measurements for 25 days. […]
A general note: In xenograft studies the graft and the host belong to different species.

Several values for one entry are separate records, joined by “and”; a condition that tells them apart may be missing. Equal values may be shown once.

As for `COc1ccc([N+](=O)[O-])c(S(=O)(=O)c2ccc(Cl)cc2)n1` [OT-1000, 2-((4-Chlorophenyl)sulfonyl)-6-methoxy-3-nitropyridine], in the test on MDA-MB-453 cells (24, 48, 72 hours (FIG. 2B)), the “sensitivity of MDA-MB-453 cells over time of exposure” value is “increasingly sensitive”. The “potency relative to Iniparib in MDA-MB-453 cells” value with MDA-MB-453 cells (CellQuanti-Blue, 24, 48 or 72 hours) is recorded as “more potent”.
Take `CCCCCCCCS(=O)(=O)c1nc(OC)ccc1[N+](=O)[O-]` [OT-1096, 6-methoxy-3-nitro-2-(octylsulfonyl)pyridine]: in test [1] (10 mg/kg three times a week intravenously, human immune cells from two separate donors, caliper), the “% TGI” value is 45% and 55%. Besides, the “mean tumor volume compared to vehicle” value in test [1] (day 24 and 28 for CD34+ donor 5243, day 31 for donor 5252, p<0.05) is “statistically significant”.

The values above are taken from patent US20210038577A1, “THIOREDOXIN REDUCTASE INHIBITORS FOR USE IN THE TREATMENT OF CANCER” (Cinda Pharma AB, priority 2018, published 2021).
